In ChEMBL document CHEMBL1132671, “The synthesis of a new class of oxytocin antagonists” (Bioorg Med Chem Lett, 1999):
pKi: −log10 of the molar value. Calls of active or inactive are those of the source. The rule behind the calls is not given here.

What was measured:
Rattus norvegicus [1] = species on record: Rattus norvegicus; test: Dose inhibiting the response of a dose of oxytocin to half of the response in rat; format: functional; conditions: for ED50: Rattus norvegicus, read-out: ID50 (the source's name)
Oxytocin receptor = molecular target: T1, Oxytocin receptor (Homo sapiens, UniProt P30559); test: […] antagonistic activity against cloned human oxytocin receptor over-expressed in a stable HEK293 cell line; format: functional
T1 sequence (P30559 whole entry): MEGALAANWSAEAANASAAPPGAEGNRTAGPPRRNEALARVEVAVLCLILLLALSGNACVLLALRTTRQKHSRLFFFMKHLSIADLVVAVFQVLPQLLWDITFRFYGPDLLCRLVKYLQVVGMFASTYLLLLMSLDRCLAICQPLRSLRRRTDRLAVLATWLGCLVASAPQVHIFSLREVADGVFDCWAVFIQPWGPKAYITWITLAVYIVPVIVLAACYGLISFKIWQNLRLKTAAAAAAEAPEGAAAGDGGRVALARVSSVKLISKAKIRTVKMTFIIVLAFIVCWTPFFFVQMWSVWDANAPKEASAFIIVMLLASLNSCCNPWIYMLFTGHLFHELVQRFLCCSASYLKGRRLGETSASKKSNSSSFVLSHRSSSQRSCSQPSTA

Rattus norvegicus [2] = species on record: Rattus norvegicus; test: Dose inhibiting the response of a dose of oxytocin to half of the response in rat;NA means no activity.; format: functional, organism-based

SMILES | pKi (Oxytocin receptor) | ED50 (Rattus norvegicus [1]) [µmol/kg] | ID50 (Rattus norvegicus [1]) [nmol/kg] | ID50 (Rattus norvegicus [2])
CC[C@@H](C)[C@@H]1NC(=O)[C@H]([C@@H](C)CC)NC(=O)[C@@H](Cc2c[nH]c3ccccc23)NC(=O)CCSCC[C@@H](C(=O)N(C)[C@@H](CCCN)C(N)=O)NC(=O)[C@H](CC(N)=O)NC1=O | – | 0.0029 | – | –
CC[C@@H](C)[C@@H]1NC(=O)[C@H]([C@@H](C)CC)NC(=O)[C@@H](Cc2c[nH]c3ccccc23)NC(=O)CCCSCC2CCCN2C(=O)[C@H](CC(N)=O)NC1=O (single isomer, unassigned) | 6.00 | – | – | inactive
CC[C@@H](C)[C@@H]1NC(=O)[C@H]([C@@H](C)CC)NC(=O)[C@@H](Cc2c[nH]c3ccccc23)NC(=O)CCSCC[C@@H](C(N)=O)NC(=O)[C@H](CC(N)=O)NC1=O | – | 0.048 | – | –

Further lines, with some results ahead:

pKi (Oxytocin receptor) | SMILES | ED50 (Rattus norvegicus [1]) [µmol/kg] | ID50 (Rattus norvegicus [1]) [nmol/kg] | ID50 (Rattus norvegicus [2])
7.59 | CC[C@@H](C)[C@@H]1NC(=O)[C@H]([C@@H](C)CC)NC(=O)[C@@H](Cc2c[nH]c3ccccc23)NC(=O)CCCSCC(CCCN)NC(=O)[C@H](CC(N)=O)NC1=O (single isomer, unassigned) | – | 32 | –
8.40 | CC[C@@H](C)[C@@H]1NC(=O)[C@H]([C@@H](C)CC)NC(=O)[C@@H](Cc2c[nH]c3ccccc23)NC(=O)CCCSC[C@H](CCCN)NC(=O)[C@H](CC(N)=O)NC1=O | – | 5.4 | –
8.55 | CC[C@@H](C)[C@@H]1NC(=O)[C@H]([C@@H](C)CC)NC(=O)[C@@H](Cc2c[nH]c3ccccc23)NC(=O)CCCSCC(CCCCN)NC(=O)[C@H](CC(N)=O)NC1=O (single isomer, unassigned) | 0.017 | – | –
